Laboratory results as given in PubChem BioAssay AID2305 (GlaxoSmithKline (GSK), 2010).

system: P. falciparum 3D7 growth, pLDH absorbance; experiment: blood-stage malaria parasite growth potency – strain 3D7, dose response (AID 2305)

Compound | IC50
Cc1cc(N2CC=CCC2)nc(/N=C(\N)Nc2ccc(Br)cc2)n1 | 690 nM
COc1ccc(C=NNc2c3ccccc3nc3ccccc23)c2ccccc12 | 1130 nM
Cc1cc(C)c2oc(-c3cccc(NC(=O)c4ccc([N+](=O)[O-])o4)c3C)nc2c1 | 1150 nM
CC(C)CNCc1ccc(-c2cccc(CN(C(=O)CCC3CCCC3)C3CCN(Cc4ccccc4)CC3)c2)cc1 | 800 nM
COc1ccc2nccc([C@@H](O)CN3CCC(NC(=O)Cc4cccc5c(Br)cccc45)CC3)c2c1 | 800 nM
O=C(NCCCCN1CCC(c2ccc3c(c2OCCN2CCCC2)CCCC3)CC1)c1ccc(-c2ccc(C(F)(F)F)cc2)cc1 | 450 nM
CC[C@H]1CN2CC[C@@H]1C[C@H]2[C@H](O)c1cc(N2CCCC(C)(C)C2)nc2ccc(OC)cc12 | 340 nM
CC(CCc1ccc(OCc2ccccc2)cc1)NCC(O)c1ccccc1 (centres undefined) | 1100 nM
Oc1ccccc1CNCC(O)c1cccc(C(F)(F)F)c1 (centres undefined) | 530 nM
C[C@H](Cc1ccc(OCCNC[C@H](O)c2cccc(Cl)c2)cc1)NC[C@H](O)c1ccc(Cl)c(Cl)c1 | 960 nM
O=C(/C=C/c1ccc(F)cc1)NC1CCC(CCN2CCc3ccccc3CC2)CC1 (centres undefined) | 1400 nM
O=C(NC(CCCN1CCC(c2ccccc2)CC1)c1ccc(Cl)c(Cl)c1)c1cc(C(F)(F)F)cc(C(F)(F)F)c1 (centres undefined) | 860 nM
COc1ccc(CNCc2ccc(-c3ccc(-c4nc5ccc(C(F)(F)F)cc5[nH]4)s3)cc2)cc1 | 170 nM
CCN(CC)CCOc1ccc(C(O)(C#CC(O)(c2ccc(Br)cc2)c2ccc(OCCN(CC)CC)cc2)c2ccc(Br)cc2)cc1 (centres undefined) | 620 nM
COc1cc(Cc2cnc(N)nc2N)cc(OCCNC(=O)OCc2ccccc2)c1OC | 920 nM
Cc1nc(C(C)Nc2nncc(-c3ccc(Cl)cc3)n2)cs1 (centres undefined) | 1330 nM
COc1cc(F)c2ncc(F)c([C@@H](O)CN3CCC(NCc4cc5c(cn4)OCCO5)CC3)c2c1 | 480 nM
COc1ccc2nccc([C@@H](O)CN3CCC(NCc4cc5ccccc5nn4)CC3)c2c1 | 1200 nM
O=C(Nc1cccc(-c2nn3ccccc3c2-c2ccnc(Nc3cccc(C(F)(F)F)c3)n2)c1)c1c(F)cccc1F | 630 nM
Cc1cccc2[nH]c(-c3cccc(-c4cccc(NC(=O)Nc5ccsc5)c4)c3)nc12 | 170 nM
Clc1ccc(CNCC2CCN(CC3CCCCC3)CC2)cc1Cl | 1000 nM
COc1ccc2nc3cc(Cl)ccc3c(NCCCCN3CCNCC3)c2c1 | 180 nM
Cn1nc(-c2ccc(CN[C@@H]3CCc4ccc(O)cc43)cc2)c2cnc(NCCCN3CCCC3)nc21 | 800 nM
Cc1cccc2[nH]c(-c3ccc(-c4cccc(CN5CCC(C(N)=O)CC5)c4)cc3)nc12 | 1770 nM
COc1ccc2nccc([C@@H](O)CN3CCC(NCc4cc5ccccc5[nH]4)CC3)c2n1 | 630 nM

Compound | IC50
OCCN1CCN(C(=S)NC2CCCCC2)CC1 | 1100 nM
NC1=NC(c2ccccc2)(c2ccccc2)C(=O)N1Cc1ccc(-c2cccnc2)cc1 | 700 nM
C=CCC(C(=O)Nc1ccnc2ccc(OC)cc12)C1CCN(CCCCCCC)CC1 (centres undefined) | 240 nM
CCN(CC)CCN(Cc1ccc(-c2ccc(Cl)s2)cc1)C(=O)Cn1c(CCc2cccc(F)c2F)nc(=O)c2ccccc21 | 1140 nM
COc1cccc(C(=O)N2CCOC(CCN3CCC(c4ccccc4)CC3)(c3ccc(Cl)c(Cl)c3)C2)c1 (centres undefined) | 510 nM
Nc1nc(N)c2c(CCc3ccc(Cl)c(Cl)c3)cccc2n1 | 670 nM
O=C(Nc1cccc(CN2CCN(Cc3ccc(O)cc3)CC2)c1)c1cccc(C(F)(F)F)c1 | 1210 nM
CCCCCCCc1cc(O)c2c(c1)OC(C)(C)c1ccncc1-2 | 1150 nM
COc1ccc2c(CNCCCCCCNCc3c(OC)ccc4cc(OC)ccc34)c(OC)ccc2c1 | 560 nM
O=C(Nc1cc(Cl)cc(Cl)c1)N[C@H]1CCN(CCCCCNC(=O)[C@@H]2C[C@H]2c2ccc(Cl)c(Cl)c2)C1 | 860 nM
Cc1cccc(CCCNC(=O)CN(c2cccc(C(F)(F)F)c2)S(=O)(=O)c2ccc(C(F)(F)F)cc2)c1 | 680 nM
CSc1nccc(-c2ccc3ccnc(N)c3c2)n1 | 920 nM
CCN=C1NC2=C(CC(C(C)(C)C)CC2)C2(CCC(C(C)(C)C)CC2)S1 (centres undefined) | 830 nM
COc1ccc2nccc(NC(=O)C3CCC(NCc4ccc5c(c4)NC(=O)CS5)CC3)c2c1 (centres undefined) | 590 nM
CCN1CCN(c2cc(C)c3cc(NC(=O)c4ccc(N(CC)CC)cc4)ccc3n2)CC1 | 960 nM
CC(C)CN1CCN(c2nc(C#N)c3c(c2C(=S)NC2CCCCC2)CC(C)(C)OC3)CC1 | 300 nM
CC(C)(C)c1ccc(Cn2c(=N)n(CC(=O)c3ccc(-c4ccccc4)cc3)c3ccccc32)cc1 | 160 nM
CC[C@H](NC(=O)c1ccc(NC(=O)OC(C)(C)C)cc1)C(=O)N[C@@H](CO)C(=O)NCCCCc1ccccc1 | 830 nM
CC(C)N1CCN(C(CN2CCN(CCCOc3cccc(-c4ccccc4)c3)CC2)c2ccc(F)cc2)CC1 (centres undefined) | 890 nM
O=C(NC1CCN(c2ncc(C(F)(F)F)cc2Cl)CC1)c1cccs1 | 900 nM
CCn1c(SCc2ccc(F)cc2)nc2sc3c(c2c1=O)CCN(C)C3 | 250 nM
O=C(Nc1ccccc1)Nc1cccc(-c2ccc(-c3nc4ccc(C(F)(F)F)cc4[nH]3)cc2)c1 | 230 nM
O=C(/C=C/c1ccsc1)NC1CCC(CN2CCC(c3c[nH]c4ccccc34)CC2)CC1 (centres undefined) | 1120 nM
Cc1cc(=O)c(-c2ccc(OCCSc3ccc(C(F)(F)F)cn3)cc2)c(C)[nH]1 | 530 nM
Cc1ccc(CNC(=O)[C@H](CCCN)Nc2cc(C)nc(NCC3CCCCC3)n2)cc1 | 1220 nM

Compound | IC50
CC(=O)c1c[nH]c2ccc(/C=C/C(=O)NC3CCC(CCN4CCc5ccc(C#N)cc5CC4)CC3)cc12 (centres undefined) | 500 nM
c1ccc2cc3c(Nc4ccc(N5CCCCC5)cc4)ccnc3cc2c1 | 740 nM
Cc1cc(C2NC(=O)c3ccccc3N2)c(C)n1-c1ccc2c(c1)OCO2 (centres undefined) | 730 nM
Cc1ccc(NC(=O)c2ccc(N3CCN(c4ccncc4)CC3)cc2)cc1F | 740 nM
CCCC1CCNC(C(O)c2ccnc3ccc(OC)cc23)C1 (centres undefined) | 430 nM
CC(C)(C)c1ccc(CNC(=O)c2ccc(-c3nc4ccc(C(C)(C)C)cc4[nH]3)cc2)cc1 | 840 nM
Nc1nccc2ccc(-c3ccc4ncccc4c3)cc12 | 110 nM
c1ccc(-c2cccnn2)cc1 | 910 nM
O=C(/C=C/c1ccc(Cl)c(Cl)c1)NCCCCCN1CCC(NC(=O)Nc2cc(Cl)cc(Cl)c2)CC1 | 720 nM
CCN(CC)CCCN(CCCN(CC)CC)c1cc(C)nc(Nc2ccc(Br)cc2)n1 | 200 nM
CCCCOc1ccccc1C(=O)NCc1csc(-c2ccccc2)n1 | 560 nM
OC1(CNCc2ccccc2)CCN(CCc2c[nH]c3ccc(F)cc23)CC1 | 710 nM
Fc1ccc2cc(C=Cc3ccncc3)[nH]c2c1 | 620 nM
COc1ccc2nccc(N(C)CC3(O)CCC(NCc4ccc5c(n4)NC(=O)CS5)CC3)c2n1 (centres undefined) | 700 nM
Oc1ccc2[nH]cc(C3=CCN(CCc4ccccc4)CC3)c2c1 | 310 nM
Cc1cccc(CC(N)=NCCCCCCN=C(N)Cc2cccc(C)c2)c1 | 170 nM
Cc1noc(C)c1-c1ccc2c(Nc3ccc([N+](=O)[O-])cc3)c(C(N)=O)cnc2c1 | 690 nM
Cn1nccc1C(=O)NCCNCc1ccc(-c2ccc(-c3nc4ccc(C(F)(F)F)cc4[nH]3)cc2)cc1 | 150 nM
O=C(Nc1cc(C(F)(F)F)cc(C(F)(F)F)c1)Nc1ccc(Cl)c(Cl)c1 | 240 nM
COCCCNc1nc2cc(OC)c(OC)cc2c2nc(-c3ccccc3)nn12 | 190 nM
O=C(NC1CC1)C1CCN(Cc2cc3ccccc3n2Cc2ccc(Cl)cc2)CC1 | 490 nM
O=C(Nc1ccc(Cn2ncc(N3CCCNCC3)c(Cl)c2=O)cc1)Nc1ccc(F)cc1[N+](=O)[O-] | 1100 nM
CCOc1ccc(NC(=O)c2ccc(CN3CCCN(Cc4cccc(O)c4)CC3)cc2)cc1 | 1310 nM
O=C(Nc1cccc(C(F)(F)F)c1)NC1CCN(c2ccnc3cc(Cl)ccc23)CC1 | 290 nM
CC(C(=O)OCCOCn1cnc2c(=O)[nH]c(N)nc21)N(C)C(=O)OC(C)(C)C (centres undefined) | 1000 nM

Compound | IC50
COc1ccc(CCC(C)N2C[C@@H](N)[C@H](c3cn(C)c4cnccc34)C2)cc1 (some centres undefined) | 1360 nM
C=CCCCNCC(NCCCNc1cc(=O)c2ccccc2[nH]1)c1cc(Br)cc(Br)c1 (centres undefined) | 890 nM
COc1cc(Cc2cnc(NCCN3CCNCC3)nc2N)ccc1OCc1ccc(C(F)(F)F)cc1 | 920 nM
CN(C)Cc1ccc(-c2ccc3c(Nc4ccc(Oc5ccccc5)cc4)ccnc3c2)o1 | 790 nM
O=c1cc(NCCCNCc2cc(F)cc(C(F)(F)F)c2)[nH]c2ccccc12 | 1200 nM
c1ccc(CN2CCC(NCc3ccc(-c4ccc(CNC5CCCC5)cc4)cc3)CC2)cc1 | 290 nM
COc1cc2nc(NCCCN3CCCCC3)nc(NCc3ccccc3)c2cc1OC | 1000 nM
O=C(c1ccc(Cl)c(Cl)c1)N1CCc2c([nH]c3ccccc23)C1CN1CCCC1 (centres undefined) | 830 nM
COc1ccc(C=NNc2nc(-c3ccccc3)cc(=O)[nH]2)cc1OC | 590 nM
Cc1cc(N(C)C)nc(Nc2ccc(NC(=O)c3c(F)cccc3Cl)cc2)n1 | 1090 nM
Cc1c(CCC#N)c(NCc2ccccc2)n2c(nc3ccccc32)c1C#N | 880 nM
Cc1cccc2[nH]c(-c3ccc(-c4ccc(CNCCCN5CCCC5=O)cc4)s3)nc12 | 750 nM
COc1ccc2nccc([C@@H](O)CN3CCC(NCCOc4c(C)cccc4F)CC3)c2c1 | 350 nM
OCC1CCN(Cc2ccc(-c3cccc(-c4nc5ccc(C(F)(F)F)cc5[nH]4)c3)cc2)CC1 | 480 nM
O=C(NC1CCC(CN2CCC(c3c[nH]c4ccccc34)CC2)CC1)c1cc2ccccc2o1 (centres undefined) | 970 nM
Cc1ccc(-c2nc3cc(NC(=O)c4ccc([N+](=O)[O-])o4)ccc3o2)cc1Cl | 160 nM
CC(C)[C@H](NC(=O)c1ccc(O)c(-c2ccc(Cl)c(Cl)c2)c1)C(=O)NCCN1CCOCC1 | 910 nM
c1cncc(-c2cccc(CNc3nccc(Nc4ccc(OCCN5CCOCC5)cc4)n3)c2)c1 | 1060 nM
COc1ccc(C(=O)[C@H]2C[C@@H]2CN2CC=C(c3c[nH]c4cccc(Br)c34)CC2)cc1 | 930 nM
Cc1cc(N[C@@H](Cc2ccccc2)C(=O)NCCOc2ccccc2)nc(NCCc2cccs2)n1 | 1000 nM
CCc1ccc(S(=O)(=O)Nc2ccc(CCN(C)C3CCN(C)CC3)cc2)cc1 | 1060 nM
COc1cc(OC)cc(C(=O)N2CCOC(CCN3CCC(c4ccccc4)CC3)(c3ccc(Cl)c(Cl)c3)C2)c1 (centres undefined) | 440 nM
COc1ccc(NC(=O)CSc2nc(-c3ccccc3Cl)ns2)cc1OC | 760 nM
CCN(CC)CCNc1nc(C=Cc2ccc(Cl)cc2)nc2cc3ccccc3cc12 | 150 nM
